Patent US8802639B2, “RNA interference modulators of hedgehog signaling and uses thereof” (Curis, Inc., priority 2004, dated 2014)
{P} = phosphate

Columns and labels:
[1] = test system: Sp-C expression in embryonic mouse lungs; experiment: Sp-C (surfactant type C) expression in embryonic mouse lung explants (Q-RT-PCR); assay type: cell-based; conditions: embryonic lung cultures (FIG. 10, FIG. 11)
Description: Surfactant production is a measure of lung maturity, and the inability to produce surfactant is the primary cause of adult and infant respiratory distress syndrome. The increase in surfactant type C production was assessed by measuring expression of Sp-C, which encodes a protein critical for the production of surfactant.
METHODS: E13.5 old embryonic mouse lungs were dissected. Explants were grown submerged in lung explant medium (DMEM based, additives optimized for the culture of mouse lungs) for 50 hrs. They were then processed for Q-RT-PCR. Briefly, total ribonucleic acid (RNA) is isolated from the tissue and subjected to reverse transcription to generate DNA. This DNA is amplified in a polymerase chain reaction using gene-specific primers as well as primers for the ubiquitously expressed housekeeping gene GAPDH. The two primer sets are labeled with different fluorophores, allowing for quantification of both signals in the same reaction tube in a real-time PCR machine (TaqMan). When calculating the expression level of Sp-C, the specific signal is normalized to the GAPDH signal, which serves as a measure of the total DNA used in the reaction.
Steroids are known to increase lung maturation and surfactant production in animals, including humans.

[2] = molecular target: Sonic hedgehog (Shh), functional hedgehog protein secreted by human cancer cell lines (human) (UniProt Q15465); experiment: cell-based or functional assay
Chain of UniProt Q15465 (Q15465 24-197 limits assumed): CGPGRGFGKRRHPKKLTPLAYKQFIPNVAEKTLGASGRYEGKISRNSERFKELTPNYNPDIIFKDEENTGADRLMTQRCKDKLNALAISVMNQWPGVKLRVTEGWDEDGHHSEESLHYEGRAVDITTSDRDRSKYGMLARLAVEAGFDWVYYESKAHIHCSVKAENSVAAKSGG

[3] = test system: Dhh (pcDNA3.1-hDhh); experiment: siRNA specificity test, Dhh expression in transfected HEK-293 cells; assay type: cell-based, human; conditions: pcDNA3.1-hDhh + 50 or 250 pmoles siRNA (FIG. 3)
Description: (§1) Next, the specificity of the inhibitory effects #1 Shh siRNA antagonist was tested against two other related Hh proteins, Ihh and Dhh. Specifically, the same HEK-293 cells were splited and seeded to a final density of about 14,000 cells/well in a 24-well tissue culture plate. The same Lipofectamine transfection as described above were carried out for each of the following combinations: • 0.4 μg of pcDNA3.1-hShh+0, 50, or 250 pmoles of siRNA #1; • 0.4 μg of pcDNA3.1-hIhh+0, 50, or 250 pmoles of siRNA #1; • 0.4 μg of pcDNA3.1-hDhh+0, 50, or 250 pmoles of siRNA #1; and, • 0.4 μg of pcDNA3.1-hShh+250 pmoles of siRNA #1 reverse strand only control.
(§2) After 2 hours of incubation with each of the complexes, the medium in each transfection well was replaced with 1 mL of fresh DMEM (no Pen./Strep.)+10% FBS, for the purpose of getting healthier cells at the end of the experiment. After 2 more days of incubation, all cells were fixed as described above, and stained with H-160 pan-Hh rabbit polyclonal antibody (Cat. No. sc-9024, Santa Cruz Biotechnology, CA) and Cy3-labeled anti-rabbit secondary antibody.

[4] = test system: Ihh (pcDNA3.1-hIhh); experiment: siRNA specificity test, Ihh expression in transfected HEK-293 cells; assay type: cell-based, human; conditions: pcDNA3.1-hIhh + 50 or 250 pmoles siRNA (FIG. 3)
Description: as §1, §2

[5] = test system: human Shh; experiment: siRNA inhibition of Shh expression in transfected HEK-293 cells (immunostaining); assay type: cell-based; conditions: for inhibition of Shh expression: 0.4 μg phShh plasmid + 20, 100 or 500 pmole siRNA, about 68 hours, anti-Shh staining (FIG. 2)
Description: To test the effectiveness of the three siRNA antagonists, a confluent plate of HEK-293 cells were splited 1:3 and plated onto a 24-well tissue culture plate. The final density of cells was about 14,000 cells/well. Lipofectamine infection was carried out according to manufacturer's instruction. Specifically, 0.4 μg phShh^FL (a human Shh-encoding plasmid “pcDNA3.1-hShh”) and either 0, 20, 100, or 500 pmole of each annealed Shh siRNA antagonist were mixed in 25 μL of serum-free DMEM (no Pen./Strep.) with 4 μL of “Plus Reagent” for 15 minutes. At the same time, 1 μL of Lipofectamine was mixed in 25 μL of serum-free DMEM (no Pen./Strep.) with 4 μL of “Plus Reagent” for 15 minutes. At the end of the incubation, the two mixtures were combined to form complexes for 15 minutes. For each well of HEK-293 cells, the medium was changed to 200 μL of serum-free DMEM (no Pen./Strp.), and the formed complexes were then added to the respective test wells. After 3 hours of incubation at 37° C. in a 5% CO2 tissue culture incubator, 250 μL of DMEM (no Pen./Strep.) with 20% FBS were added to each well. The plate of cells were then returned to the incubator. After about 68 hours of incubation, cells in each well were fixed in 4% PFA/PAS, and stained with 1:200 dilution of rabbit anti-Shh antibody and Cy3-labeled anti-rabbit secondary antibody. […] Therefore, #1 siRNA was used for future experiments.
as §1, §2

Molecule: C[C@]12CCC(=O)C=C1CC[C@@H]1[C@@H]2[C@@H](O)C[C@@]2(C)[C@H]1CC[C@]2(O)C(=O)CO [hydrocortisone]
- Sp-C expression [1]: increase in Sp-C expression

Molecule: Shh blocking antibody (5E1)
- inhibition of luciferase expression in S12 cells (gli-Luc assay, S12/RT-4 co-cultures), IC50 [2]: 0.085 µg/mL
- inhibition of luciferase expression in S12 cells (gli-Luc assay, S12/RT-4 co-cultures), IC90 [2]: 0.5 µg/mL

Molecule: siRNA #1: siRNA duplex against human Shh; sense 5′-P cga gau guc ugc ugc uag ucc (SEQ ID NO: 5), antisense SEQ ID NO: 6 (sense CGAGAUGUCUGCUGCUAGUCC; antisense ACUAGCAGCAGACAUCUCGCC; RNA, 5' {P}, backbone not given here)
- inhibition of Dhh expression [3]: did not obviously inhibit Ihh or Dhh expression
- inhibition of Ihh expression [4]: did not obviously inhibit Ihh or Dhh expression
- inhibition of Shh expression [5]: nearly completely inhibits Shh expression
- specificity for Shh as compared to Ihh and Dhh ([5]; 50 or 250 pmoles siRNA (FIG. 3)): very specific for Shh
- inhibition of expression of human Shh ([5]; pcDNA3.1-hShh + 50 pmoles siRNA, H-160 pan-Hh staining (FIG. 3)): almost completely inhibited expression of human Shh

Molecule: siRNA #4: siRNA duplex against human Shh; sense 5′-P cag agu agc ccu aac cgc ucc (SEQ ID NO: 7), antisense SEQ ID NO: 8 (sense CAGAGUAGCCCUAACCGCUCC; antisense AGCGGUUAGGGCUACUCUGCC; RNA, 5' {P}, backbone not given here)
- inhibition of Shh expression [5]: less pronounced

Molecule: siRNA #5: siRNA duplex against human Shh; sense 5′-P cgg uca agu cca gcu gaa gcc (SEQ ID NO: 9), antisense SEQ ID NO: 10 (sense CGGUCAAGUCCAGCUGAAGCC; antisense CUUCAGCUGGACUUGACCGCC; RNA, 5' {P}, backbone not given here)
- inhibition of Shh expression [5]: slightly less effective than #1
